According to ChEMBL document CHEMBL1124732, “Synthesis, conformation, and immunosuppressive activities of three analogues of cyclosporin A modified in the 1-position” (1990):

Assay: Relative immunosuppressive activity tested against inhibition of concanavalin A stimulated thymocytes
Assay type: functional
Set-up: scale not given: the % may be the effect or the level left

CC#CC[C@@H](C)[C@@H](O)[C@H]1C(=O)N[C@@H](CC)C(=O)N(C)CC(=O)N(C)[C@@H](CC(C)C)C(=O)N[C@@H](C(C)C)C(=O)N(C)[C@@H](CC(C)C)C(=O)N[C@@H](C)C(=O)N[C@H](C)C(=O)N(C)[C@@H](CC(C)C)C(=O)N(C)[C@@H](CC(C)C)C(=O)N(C)[C@@H](C(C)C)C(=O)N1C
Activity: 10%
